{
  "source": "patent US20230321064A1",
  "about": "“Products for Treating the JNCL Disease” (Beyond Batten Disease Foundation, priority 2020, published 2023)",
  "key": {"[1]": {"test_system": "Cln3^Δex7-8 mice", "experiment": "Neuronal cell death, cleaved caspase-3 immunohistology in brain sections", "format": "in vivo, mouse", "method": "(§1) Cln3^Δex7-8 mice were obtained from the Jackson Laboratory. Control (C57BL/6J) and Cln3^Δex7-8 mice were housed 3-4 per cage in a room with a 12-h light/12-h dark cycle. Food and water were provided ad libitum. All mice used in this study were analyzed at 8 and 12 months of age and were littermates produced by crossing heterozygous Cln3^Δex7-8 mice. Only males were used for this analysis. Investigators were blinded when analyzing the data, and no randomization was necessary.\n(§2) For oral administration, Trehalose was dissolved in drinking water to a final concentration of 2% and changed twice a week. Trehalose-containing water was given to Cln3^Δex7-8 mice and WT mice by spontaneous oral administration starting at 21 days of age and continuing until the day the mice were sacrificed for neuropathology studies.\n(§3) Miglustat was administered in mixture with the food pellet starting at 21 days of age and continuing until the day the mice were sacrificed for neuropathology studies. Miglustat food was prepared by TestDiet using the 5V5R rodent diet (LabDiet). Two concentrations were used: 1.2 g/Kg chow (indicated as “low concentration”) and 7.2 g/Kg chow (indicated as “high concentration”) and two separate groups of Cln3^Δex7-8 mice were fed with either diet. One additional group of Cln3^Δex7-8 l mice was fed with a combination of the low-concentration Miglustat food and 2% Trehalose water.\n(§4) Twelve-month-old homozygous Cln3^Δex7-8 mice and age-matched controls (WT mice) were anaesthetized with isoflurane and transcardially perfused with PBS followed by 4% buffered paraformaldehyde in 0.1 M sodium phosphate buffer, pH 7.4. Brains were subsequently removed and postfixed overnight. Before sectioning, the brains were cryoprotected in a solution containing 30% sucrose in Tris-buffered saline (TBS: 50 mM Tris, pH 7.6). Consecutive 40 μm floating coronal sections were collected in 96-well plates. Series of sections were then stained with primary antisera against CD68 (AbD\n(§5) Serotec, Cat. No. MCA1957), GFAP (DAKO, Cat. No. Z0334), Subunit C of mitochondrial ATP synthase (SCMAS; Abcam, Cat. No. ab181243), or cleaved caspase 3 (Asp175) (Cell Signaling, Cat. No. 9661S) followed by either rabbit anti-rat (VectorLab) or swine anti-rabbit (DAKO) secondary antibodies, and immunoreactivity detected with Vectastain ABC (avidin-biotin) kit (Vector) and diaminobenzidine as a chromogen.\nNon-overlapping images were captured, on three consecutive sections, through each region of interest. All RGB images were captured via a live video camera (JVC, 3CCD, KY-F55B), mounted onto a Zeiss Axioplan microscope using a x 40 objective and saved as JPEGs. All parameters including lamp intensity, video camera set-up and calibration were maintained constant throughout image capturing. For quantification of storage and inflammation, images were analyzed using ImageJ analysis software (NIH), using an appropriate threshold that selected the foreground immunoreactivity above background. This threshold was then applied as a constant to all subsequent images analyzed per batch of animals and reagent used to determine the specific area of immunoreactivity for each antigen in each region. Data were plotted graphically as the mean percentage area of immunoreactivity per field ±s.e.m. for each region. For quantification of cell death, images were analyzed manually and scored for the presence of apoptotic nuclei. Data were plotted graphically as the mean number of apoptotic cells per field ±s.e.m. for each region. […]"}, "[2]": {"test_system": "Cln3^Δex7-8 mice", "experiment": "Astrocytosis, GFAP immunohistochemistry in brain sections", "format": "in vivo, mouse", "method": "as §1, §2, §3, §4, §5\nNon-overlapping images were captured, on three consecutive sections, through each region of interest. All RGB images were captured via a live video camera (JVC, 3CCD, KY-F55B), mounted onto a Zeiss Axioplan microscope using a x 40 objective and saved as JPEGs. All parameters including lamp intensity, video camera set-up and calibration were maintained constant throughout image capturing. For quantification of storage and inflammation, images were analyzed using ImageJ analysis software (NIH), using an appropriate threshold that selected the foreground immunoreactivity above background. This threshold was then applied as a constant to all subsequent images analyzed per batch of animals and reagent used to determine the specific area of immunoreactivity for each antigen in each region. Data were plotted graphically as the mean percentage area of immunoreactivity per field ±s.e.m. for each region. For quantification of cell death, images were analyzed manually and scored for the presence of apoptotic nuclei. Data were plotted graphically as the mean number of apoptotic cells per field ±s.e.m. for each region. All analyses were performed blind to genotype and treatment.\n[…] was also quantified by performing immunohistochemistry staining of brain sections of all test and control mice using anti-GFAP antibodies."}, "[3]": {"test_system": "Cln3^Δex7-8 mice", "experiment": "Lysosomal storage in cerebellum (SCMAS staining)", "format": "in vivo, mouse", "conditions": "12 months of age", "method": "as §1\nFor oral administration, Trehalose was dissolved in drinking water to a final concentration of 2% and changed twice a week. […]\nas §5\nNon-overlapping images were captured, on three consecutive sections, through each region of interest. […] For quantification of storage and inflammation, images were analyzed using ImageJ analysis software (NIH), using an appropriate threshold that selected the foreground immunoreactivity above background. […]"}, "[4]": {"experiment": "Blood PK of Trehalose after IV and PO administration, with and without PO Miglustat (LC-MS/MS)", "format": "in vivo, mouse", "conditions": "for Cmax / Tmax / AUC(0-inf): male, C57BL6/N, mouse, whole blood; for AUC(0-inf): read-out: AUC0-inf of Trehalose in blood (converted)", "method": "LC-MS/MS bioanalytical methodologies were developed for the analysis of Trehalose, Miglustat and glucose in mouse whole blood and brain.\nBlood samples were prepared as follows; 20 μL of whole blood was transferred to a 96 wellplate and diluted 1:1 with sterile distilled water. Samples were protein precipitated by addition of 160 μL of 2.5% of trichloroacetic acid (TCA). At the time of analysis, 1 volume of acetonitrile containing an internal standard was added in order to match the initial chromatography conditions, samples were centrifuged at 4350 rpm for 10 min at ambient temperature, and the resultant supernatant transferred for analysis on the LC-MS/MS.\nThe purpose of this example was to compare the blood PK of unlabelled high doses of Trehalose after IV and PO administration, with and without Miglustat PO dosing. For the IV comparison, Trehalose was dosed as an IV bolus dose 15 min after PO dosing of Miglustat. For the PO comparison Miglustat was dosed simultaneously with Trehalose. Fasted male C57BL6/N mice were dosed as detailed in Table III:\nBlood samples were collected at pre-dose, 10, 20, 30, 60, 120 and 180 min post-dose for group 1 and 2 and at pre-dose, 15, 30, 45, 60, 120 and 180 min post-dose for group 3 and 4."}, "[5]": {"conditions": "at 20° C.; cited from earlier work"}, "[6]": {"conditions": "1 g/kg trehalose IV + 150 mg/kg miglustat PO"}, "[7]": {"conditions": "10 g/kg trehalose PO + 150 mg/kg miglustat PO"}},
  "note": "Entries after “also recorded” stand apart in the source; their conditions may differ. Read-outs that look alike come from different tables or passages of the source.",
  "data": [
    {"smiles": "OC[C@H]1O[C@H](O[C@H]2O[C@H](CO)[C@@H](O)[C@H](O)[C@H]2O)[C@H](O)[C@@H](O)[C@@H]1O", "note": "[Trehalose, α-D-glucopyranosyl α-D-glucopyranoside dihydrate]", "values": [
      {"measurement": "cell death (cleaved CAS-3) in the VPM/VPL region", "setting": "[1]; 12 months of age, oral, 2% Trehalose in drinking water, Miglustat in chow (FIG. 1E), dihydrate", "result": "partially prevented; also recorded: partially reduced"},
      {"measurement": "programmed cell death (cleaved caspase-3 reactive cells)", "setting": "[1]; regions analyzed: VPM/VPL, dLG, S1BF, V1 (FIGS. 1A-D), oral treatment", "result": "effective in abating programmed cell death"},
      {"measurement": "astroglial activation (GFAP staining) in the VPM/VPL region", "setting": "[2]; 12 months of age, oral, Miglustat even at low doses (FIG. 3E)", "result": "partially prevented"},
      {"measurement": "astrocytosis (GFAP immunoreactivity) in the VPM/VPL", "setting": "[2]; FIG. 3A", "result": "did not have any observable effects"},
      {"measurement": "astrocytosis (GFAP immunoreactivity) in the DLG", "setting": "[2]; FIG. 3B", "result": "prevented astrocytosis"},
      {"measurement": "increased storage in the cerebellum (SCMAS staining)", "setting": "[3]", "result": "partially reduces this increased storage"},
      {"measurement": "Trehalose fold-change with miglustat dosing", "setting": "[4]; 1 g/kg trehalose IV + 150 mg/kg miglustat PO vs 1 g/kg IV alone", "result": 1.5},
      {"measurement": "increase of measured AUC of Trehalose by combined PO Miglustat", "setting": "[4]; Trehalose via either IV or PO administration", "result": "> 1.5", "unit": "fold"},
      {"measurement": "detection of Trehalose after oral administration", "setting": "[4]; low doses such as 1 g/kg, oral", "result": "cannot be detected"},
      {"measurement": "Cmax", "setting": "[4]; 1 g/kg trehalose IV", "result": "3690 ± 153", "unit": "µM"},
      {"measurement": "Tmax", "setting": "[4]; 1 g/kg trehalose IV", "result": 20, "unit": "min"},
      {"measurement": "Cmax", "setting": "[4]; [6]", "result": "5490 ± 873", "unit": "µM"},
      {"measurement": "Tmax", "setting": "[4]; [6]", "result": 20, "unit": "min"},
      {"measurement": "AUC(0-inf)", "setting": "[4]; [6]", "result": 2990, "unit": "µM·h"},
      {"measurement": "AUC(0-inf)", "setting": "[4]; 1 g/kg trehalose IV", "result": 1960, "unit": "µM·h"},
      {"measurement": "Cmax", "setting": "[4]; [7]", "result": "189 ± 43.9", "unit": "µM"},
      {"measurement": "Tmax", "setting": "[4]; [7]", "result": 15, "unit": "min"},
      {"measurement": "AUC(0-inf)", "setting": "[4]; [7]", "result": 307, "unit": "µM·h"},
      {"measurement": "Solubility", "setting": "[5]", "result": "Trehalose: 68.9 g/100 g H2O at 20 °C"}
    ]}
  ]
}
